From patent publication US20240218022A1, “ANTI-VISTA MACROCYCLIC PEPTIDES AND COMPOSITIONS” (BRISTOL-MYERS SQUIBB COMPANY, priority 2022, published 2024)
Read-outs that look alike come from different tables or passages of the source. Starred links: 1 amine or outer side, 2 acyl side, 3 side chain; linkers in the order of their positions; H or OH if unused. Positions of bridges follow the written chain, without caps; N, C: chain ends. Non-standard residues stand in square brackets, D forms with d. Residues, ends and D or L forms follow the SMILES beside them. βAsp = O=C(O)[C@H](CC(=O)[*:2])N[*:1]; Tic = O=C(O)[C@@H]1Cc2ccccc2CN1; Aad = N[C@@H](CCCC(=O)O)C(=O)O; Cit = NC(=O)NCCC[C@H](N)C(=O)O; Ahp(2) = CCCCC[C@H](N)C(=O)O; NMeNle = CCCC[C@H](NC)C(=O)O; Tle = CC(C)(C)[C@H](N)C(=O)O; NHexGly = CCCCCCNCC(=O)O; Nle = CCCC[C@H](N)C(=O)O; Aun = NCCCCCCCCCCC(=O)O; Nva = CCC[C@H](N)C(=O)O; AEEA = NCCOCCOCC(=O)O

Biological target: T1, mouse VISTA (mVISTA) (Mus musculus, UniProt Q9D659)
T1 construct: expressed in transfected cells; host or cells: Human embryonic kidney 293T cells
T1 sequence (Q9D659 33-308): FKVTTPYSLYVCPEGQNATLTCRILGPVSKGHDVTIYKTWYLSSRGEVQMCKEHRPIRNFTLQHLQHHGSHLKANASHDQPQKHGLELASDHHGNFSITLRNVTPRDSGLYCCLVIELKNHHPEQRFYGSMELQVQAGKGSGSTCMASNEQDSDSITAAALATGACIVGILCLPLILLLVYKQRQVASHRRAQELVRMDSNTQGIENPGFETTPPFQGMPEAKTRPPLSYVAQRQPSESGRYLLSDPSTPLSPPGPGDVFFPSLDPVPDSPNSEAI
Assay: Cell-Based Binding High-Content Assay For mVISTA (HC CBA mVISTA)
How it was run: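 Read-out: Alexa 647–streptavidin signal imaged on fixed, Hoechst-stained mVISTA-293T cells, with IC50 taken from a four-parameter logistic curve. Compounds competed with 2 nM biotinylated peptide for 30 min at room temperature, tested under both no-wash and wash (1 h compound, media exchange, 1 h) formats.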

[1] = 293T cells expressing mouse VISTA, competition with biotinylated peptide (2 nM), read-out: HC CBA mVISTA IC50

IC50 [1] [nM]	SMILES	other results
	CCCCCCN1CC(=O)N[C@@H](Cc2ccc(O)cc2)C(=O)N[C@@H](CCCC(=O)O)C(=O)N[C@@H](CC(N)=O)C(=O)N[C@@H](CCCNC(=N)N)C(=O)N(C)[C@@H](CCCC)C(=O)N[C@@H](CCCCC)C(=O)N2CCC[C@H]2C(=O)N[C@@H](C(C)(C)C)C(=O)N[C@@H](CO)C(=O)N[C@H](C(=O)N[C@@H](CC(=O)NCCOCCOCC(=O)N[C@@H](CC(=O)O)C(=O)NCCOCCOCC(=O)NCCCCCCCCCCC(=O)O)C(=O)O)CSCC(=O)N[C@@H](Cc2ccccc2)C(=O)N[C@@H](Cc2ccc(O)cc2)C(=O)N[C@@H](CC(=O)O)C1=O [compound 2054] ({CH2CO}-FYD[NHexGly]Y[Aad]NR[NMeNle][Ahp(2)]P[Tle]SC[βAsp][AEEA]D[AEEA][Aun]-OH; thioether N-14)	IC50 (cell-based binding high-content assay, mVISTA, read-out: HC CBA miPr ISTA IC50): 23.2 nM
	CCCCCCN1CC(=O)N[C@@H](Cc2ccc(O)cc2)C(=O)N[C@@H](CCCC)C(=O)N[C@@H](CC(N)=O)C(=O)N[C@@H](CCCNC(N)=O)C(=O)N2Cc3ccccc3C[C@H]2C(=O)N[C@@H](CCCCC)C(=O)N2CCC[C@H]2C(=O)N[C@@H](C(C)C)C(=O)N[C@@H](CC(=O)O)C(=O)N[C@H](C(=O)NCC(N)=O)CSCC(=O)N[C@@H](Cc2ccccc2)C(=O)N[C@@H](Cc2c[nH]c3ccccc23)C(=O)N[C@@H](CC(=O)O)C1=O [Example 1412] ({CH2CO}-FWD[NHexGly]Y[Nle]N[Cit][Tic][Ahp(2)]PVDCG-NH2; thioether N-14)	IC50 (read-out: HC CBA mVISTA IC50): 13.1 nM
21.1	CCCCCCN1CC(=O)N[C@@H](Cc2ccc(O)cc2)C(=O)N[C@@H](CCCNC(=N)N)C(=O)N[C@@H](CC(N)=O)C(=O)N[C@@H](CCCNC(=N)N)C(=O)N[C@@H](CC(C)C)C(=O)N[C@@H](CCCCC)C(=O)N2CCC[C@H]2C(=O)N[C@@H](C(C)C)C(=O)N[C@@H](CC(=O)O)C(=O)N[C@H](C(=O)NCC(=O)O)CSCC(=O)N[C@@H](Cc2ccccc2)C(=O)N[C@@H](Cc2ccc(O)cc2)C(=O)N[C@@H](CC(=O)O)C1=O [Example 1012] ({CH2CO}-FYD[NHexGly]YRNRL[Ahp(2)]PVDCG-OH; thioether N-14)	
46.3	CCCCCCN1CC(=O)N[C@@H](Cc2ccc(O)cc2)C(=O)N[C@@H](CCC)C(=O)NCC(=O)N[C@@H](CCCNC(=N)N)C(=O)N[C@@H](CC(C)C)C(=O)N[C@@H](CCCCC)C(=O)N2CCC[C@H]2C(=O)N[C@@H](C(C)C)C(=O)N[C@@H](CO)C(=O)N[C@H](C(=O)NCC(=O)O)CSCC(=O)N[C@@H](Cc2ccccc2)C(=O)N[C@@H](Cc2ccc(O)cc2)C(=O)N[C@@H](CC(=O)O)C1=O [Example 1061] ({CH2CO}-FYD[NHexGly]Y[Nva]GRL[Ahp(2)]PVSCG-OH; thioether N-14)	
	CCCCCCN1CC(=O)N[C@@H](Cc2ccc(O)cc2)C(=O)N[C@@H](CCCC)C(=O)N[C@@H](CC(N)=O)C(=O)N[C@@H](CCCNC(N)=O)C(=O)N[C@@H](CC(C)C)C(=O)N[C@@H](CCCCC)C(=O)N2CCC[C@H]2C(=O)N[C@@H](C(C)C)C(=O)N[C@@H](CO)C(=O)N[C@H](C(=O)NCCOCCOCC(=O)N[C@@H](CC(=O)O)C(=O)NCCOCCOCC(=O)NCCCCCCCCCCC(=O)O)CSCC(=O)N[C@@H](Cc2ccc3ccccc3c2)C(=O)N[C@@H](Cc2ccc(O)cc2)C(=O)N[C@@H](CC(=O)O)C1=O (stereo in doubt) [compound 2305]	IC50 (cell-based binding high-content assay, read-out: HC CBA miPrISTA IC50): 23 nM
18.1	CCCCCCN1CC(=O)N[C@@H](Cc2ccc(O)cc2)C(=O)N[C@@H](CCCC)C(=O)NCC(=O)N[C@@H](CCCNC(=N)N)C(=O)N[C@@H](CC(C)C)C(=O)N[C@@H](CCCCC)C(=O)N2CCC[C@H]2C(=O)N[C@@H](C(C)C)C(=O)N[C@@H](Cc2ccc(O)cc2)C(=O)N[C@H](C(=O)NCC(=O)O)CSCC(=O)N[C@@H](Cc2ccccc2)C(=O)N[C@@H](Cc2ccc(O)cc2)C(=O)N[C@@H](CC(=O)O)C1=O [Example 1070] ({CH2CO}-FYD[NHexGly]Y[Nle]GRL[Ahp(2)]PVYCG-OH; thioether N-14)	
